Assay results published in ChEMBL document CHEMBL4052802, “Design, synthesis and biological evaluation of novel 3-oxo-4-oxa-5α-androst-17β-amide derivatives as dual 5α-reductase inhibitors and androgen receptor antagonists” (Bioorg Med Chem Lett, 2017).

Key:
Androgen receptor = target: T1, Androgen receptor (Rattus norvegicus, UniProt P15207); experiment: Displacement of fluormone-AL Green from recombinant rat His-tagged/GST-fused androgen receptor LBD expressed in baculovirus expression system measured after 1.5 hrs by fluorescence polarization assay
T1 sequence (P15207 whole entry): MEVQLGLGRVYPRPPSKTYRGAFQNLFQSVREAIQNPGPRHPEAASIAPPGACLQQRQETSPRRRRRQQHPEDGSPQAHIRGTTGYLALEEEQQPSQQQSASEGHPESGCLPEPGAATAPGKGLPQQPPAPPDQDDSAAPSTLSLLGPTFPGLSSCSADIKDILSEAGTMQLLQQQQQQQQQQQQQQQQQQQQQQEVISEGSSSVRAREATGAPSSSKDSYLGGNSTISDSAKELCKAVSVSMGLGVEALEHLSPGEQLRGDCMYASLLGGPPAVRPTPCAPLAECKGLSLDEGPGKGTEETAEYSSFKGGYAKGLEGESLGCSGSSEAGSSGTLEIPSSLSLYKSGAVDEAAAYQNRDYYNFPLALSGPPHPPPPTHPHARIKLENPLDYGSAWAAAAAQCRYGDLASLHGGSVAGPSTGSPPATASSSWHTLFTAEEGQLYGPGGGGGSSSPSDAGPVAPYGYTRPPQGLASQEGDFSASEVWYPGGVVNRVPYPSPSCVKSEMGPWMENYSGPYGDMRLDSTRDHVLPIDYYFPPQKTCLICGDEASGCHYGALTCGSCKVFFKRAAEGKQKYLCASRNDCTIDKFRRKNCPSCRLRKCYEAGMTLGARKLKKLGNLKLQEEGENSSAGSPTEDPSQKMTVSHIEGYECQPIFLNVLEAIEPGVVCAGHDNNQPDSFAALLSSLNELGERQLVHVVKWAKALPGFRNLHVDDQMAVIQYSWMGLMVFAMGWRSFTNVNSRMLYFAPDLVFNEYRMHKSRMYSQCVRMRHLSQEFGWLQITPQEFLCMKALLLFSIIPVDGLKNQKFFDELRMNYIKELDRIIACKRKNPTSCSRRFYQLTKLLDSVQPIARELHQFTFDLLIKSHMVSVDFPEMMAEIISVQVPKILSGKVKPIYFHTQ

PC-3 [1] = experiment: Cytotoxicity against human PC3 cells after 48 hrs by MTT assay; format: functional, cell-based; settings: PC-3, 48 h
Rattus norvegicus = species on record: Rattus norvegicus; experiment: Inhibition of rat liver 5alpha-reductase at 50 uM using testosterone as substrate incubated for 30 mins measured for 10 mins by fluorescence assay relative to control
PC-3 [2] = experiment: Growth inhibition of human PC3 cells at 80 uM after 48 hrs by MTT assay relative to control; format: functional; settings: PC-3, 48 h, read-out: GI
[3] = target: Androgen receptor (Homo sapiens) (UniProt P10275); experiment: Inhibition of recombinant human His-tagged/GST-fused androgen receptor LBD expressed in baculovirus expression system at 50 uM measured after 1.5 hrs by fluorescence polarization assay relative to control
LNCaP [4] = experiment: Growth inhibition of human LNCAP cells at 80 uM after 48 hrs by MTT assay relative to control; format: functional; settings: read-out: GI
[5] = Elimination half-life in Sprague-Dawley rat at 0.2 mg/kg, po by LC-MS/MS analysis; format: ADME, organism-based; settings: in vivo, read-out: beta t1/2 (converted)
Plasma [6] = experiment: Retention time in Sprague-Dawley rat plasma at 0.2 mg/kg, po measured after 24 hrs by total ion chromatographic method; format: ADME, organism-based; settings: in vivo
[7] = AUC (0 to infinity) in Sprague-Dawley rat at 0.2 mg/kg, po by LC-MS/MS analysis; format: ADME, organism-based; set-up: dose 0.2 mg/kg, route oral, time infinity; settings: in vivo
[8] = Inhibition of rat liver 5alpha-reductase using testosterone as substrate incubated for 30 mins measured for 10 mins by fluorescence assay
[9] = Cmax in Sprague-Dawley rat at 0.2 mg/kg, po by LC-MS/MS analysis; format: ADME, organism-based; set-up: dose 0.2 mg/kg, route oral; settings: in vivo
[10] = Tmax in Sprague-Dawley rat at 0.2 mg/kg, po by LC-MS/MS analysis; format: ADME, organism-based; settings: in vivo
[11] = AUC (0 to t) in Sprague-Dawley rat at 0.2 mg/kg, po by LC-MS/MS analysis; format: ADME, organism-based; settings: in vivo
LNCaP [12] = experiment: Cytotoxicity against human LNCAP cells after 48 hrs by MTT assay; format: functional, cell-based
[13] = Selectivity ratio of IC50 for human PC3 cells to IC50 for human LNCAP cells; format: functional
Plasma [14] = experiment: Drug uptake in Sprague-Dawley rat plasma at 0.2 mg/kg, po after 6 hrs by LC-MS/MS analysis; format: ADME, organism-based; settings: in vivo

SMILES: C[C@H]1CC(=O)C[C@@H]2CC[C@H]3[C@@H]4CC[C@H](O)[C@@]4(C)CC[C@@H]3[C@]21C [MESTEROLONE]
- IC50 (Androgen receptor): 18.3 µM

SMILES: C[C@]12CCC(=O)O[C@@H]1CC[C@@H]1[C@@H]2CC[C@]2(C)[C@@H](C(=O)N(C3CCCCC3)C3CCCCC3)CC[C@@H]12
- IC50 (PC-3 [1]): 74.3 µM
- inhibition (Rattus norvegicus): 33.4%
- inhibition of growth at 80 µM (PC-3 [2]): 32%
- inhibition [3]: 11.3%
- inhibition of growth at 80 µM (LNCaP [4]): 13.8%

SMILES: CC(C)(C)NC(=O)[C@H]1CC[C@H]2[C@@H]3CC[C@H]4NC(=O)C=C[C@]4(C)[C@H]3CC[C@]12C [FINASTERIDE]
- half-life [5]: 3.91 h
- IC50 (PC-3 [1]): > 80 µM
- Retention_time (Plasma [6]): 3.5 min
- inhibition (Rattus norvegicus): 94.3%
- inhibition of growth at 80 µM (PC-3 [2]): 0.4%
- AUC(0-inf) [7]: 23.8 ng·h/mL
- IC50 [8]: 0.59 µM
- Cmax [9]: 4.19 ng/mL
- Tmax [10]: 2.67 h
- AUC(0-t) [11]: 23.5 ng·h/mL

SMILES: CCN(CC)C(=O)[C@H]1CC[C@H]2[C@@H]3CC[C@H]4OC(=O)CC[C@]4(C)[C@H]3CC[C@]12C
- IC50 (PC-3 [1]): 68.2 µM
- inhibition (Rattus norvegicus): 39.5%
- inhibition of growth at 80 µM (PC-3 [2]): 27.9%
- inhibition [3]: 33.7%
- inhibition of growth at 80 µM (LNCaP [4]): 42.7%

SMILES: Cc1ccc(NC(=O)[C@H]2CC[C@H]3[C@@H]4CC[C@H]5OC(=O)CC[C@]5(C)[C@H]4CC[C@]23C)cc1
- half-life [5]: 4.74 h
- IC50 (PC-3 [1]): 114 µM
- Retention_time (Plasma [6]): 3.6 min
- inhibition (Rattus norvegicus): 98.5%
- inhibition of growth at 80 µM (PC-3 [2]): 18.1%
- AUC(0-inf) [7]: 54.1 ng·h/mL
- IC50 (Androgen receptor): 47.6 µM
- inhibition [3]: 55.5%
- IC50 [8]: 0.27 µM
- Cmax [9]: 6.89 ng/mL
- IC50 (LNCaP [12]): 26.5 µM
- inhibition of growth at 80 µM (LNCaP [4]): 82.3%
- Tmax [10]: 3.83 h
- Ratio IC50 [13]: 4
- AUC(0-t) [11]: 52.5 ng·h/mL
- Drug uptake (Plasma [14]): Not Active

SMILES: CC(C)C(=O)Nc1ccc([N+](=O)[O-])c(C(F)(F)F)c1 [FLUTAMIDE]
- IC50 (PC-3 [1]): 67.3 µM
- inhibition of growth at 80 µM (PC-3 [2]): 21.2%
- IC50 (LNCaP [12]): 47.6 µM
- inhibition of growth at 80 µM (LNCaP [4]): 63%

SMILES: CC(C)(C)NC(=O)[C@H]1CC[C@H]2[C@@H]3CC[C@H]4OC(=O)CC[C@]4(C)[C@H]3CC[C@]12C
- IC50 (PC-3 [1]): 70.1 µM
- inhibition (Rattus norvegicus): 48.3%
- inhibition of growth at 80 µM (PC-3 [2]): 28.1%
- inhibition [3]: 3.73%
- inhibition of growth at 80 µM (LNCaP [4]): 37.3%

SMILES: CCCCN(CCCC)C(=O)[C@H]1CC[C@H]2[C@@H]3CC[C@H]4OC(=O)CC[C@]4(C)[C@H]3CC[C@]12C
- IC50 (PC-3 [1]): 40.1 µM
- inhibition (Rattus norvegicus): 36.5%
- inhibition of growth at 80 µM (PC-3 [2]): 89.9%
- inhibition [3]: 11.8%
- IC50 (LNCaP [12]): 32.4 µM
- inhibition of growth at 80 µM (LNCaP [4]): 88.9%
